# In publication PMC4231100, “Cerebral Artery Alpha-1 AR Subtypes: High Altitude Long-Term Acclimatization Responses” (PLoS ONE, 2014):
# Counter-ions that a name gives are not always drawn.
# Key:
# α1D-AR = molecular target: T1, α1D-AR (Ovis aries, UniProt A0ACI6RHM3); assay: functional antagonism (KB) of phenylephrine-induced contraction in isolated arteries
# T1 construct: gene ADRA1D
# T1 sequence (A0ACI6RHM3 1-564): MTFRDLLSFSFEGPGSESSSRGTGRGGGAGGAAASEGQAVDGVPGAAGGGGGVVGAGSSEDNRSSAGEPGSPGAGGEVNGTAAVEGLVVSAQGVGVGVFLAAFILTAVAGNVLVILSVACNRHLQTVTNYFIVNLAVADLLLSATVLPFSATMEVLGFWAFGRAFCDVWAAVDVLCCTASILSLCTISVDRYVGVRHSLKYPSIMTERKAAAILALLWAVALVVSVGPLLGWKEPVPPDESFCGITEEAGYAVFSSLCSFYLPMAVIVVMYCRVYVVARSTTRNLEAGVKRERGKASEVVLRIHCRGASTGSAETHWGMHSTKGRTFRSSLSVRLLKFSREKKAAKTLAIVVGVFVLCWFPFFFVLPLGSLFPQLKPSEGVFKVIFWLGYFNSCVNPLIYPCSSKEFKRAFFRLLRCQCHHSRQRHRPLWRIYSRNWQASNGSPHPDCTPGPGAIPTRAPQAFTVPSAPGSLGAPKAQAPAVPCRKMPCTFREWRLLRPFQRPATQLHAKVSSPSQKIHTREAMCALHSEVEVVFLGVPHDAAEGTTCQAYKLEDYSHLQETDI
# α1A-AR = molecular target: T2, α1A-AR (Ovis aries, UniProt A0ACI6NWI5); assay: as above
# T2 construct: gene ADRA1A
# T2 sequence (A0ACI6NWI5 1-466): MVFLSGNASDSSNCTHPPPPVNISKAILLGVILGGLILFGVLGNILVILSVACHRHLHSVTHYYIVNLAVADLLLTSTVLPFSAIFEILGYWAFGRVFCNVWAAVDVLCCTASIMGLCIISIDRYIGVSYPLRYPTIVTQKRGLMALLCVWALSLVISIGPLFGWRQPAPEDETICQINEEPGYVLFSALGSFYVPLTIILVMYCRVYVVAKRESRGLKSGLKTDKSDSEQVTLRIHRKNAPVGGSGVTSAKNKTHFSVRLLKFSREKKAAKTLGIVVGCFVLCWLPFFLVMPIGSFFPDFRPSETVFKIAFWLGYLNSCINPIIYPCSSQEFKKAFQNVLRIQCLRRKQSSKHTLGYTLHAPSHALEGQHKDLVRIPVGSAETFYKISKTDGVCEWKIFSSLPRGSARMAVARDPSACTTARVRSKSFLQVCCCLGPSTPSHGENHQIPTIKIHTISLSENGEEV
Compound,Kb (α1D-AR),Kb (α1A-AR)
"COc1ccccc1N1CCN(CCN2C(=O)CC3(CCCC3)CC2=O)CC1 [BMY, 8-(2-[4-(2-Methoxyphenyl)-1-piperazinyl]ethyl)-8-azaspiro(4.5)decane-7,9-dione]",6.7 nM,
"COc1cccc(OC)c1OCCNCC1COc2ccccc2O1 (centres unmarked) [WB, 2-([2,6-Dimethoxyphenoxyethyl]a-minomethyl)-1,4-benzodioxane hydrochloride]",,11 nM
